# Measured values taken from US11603377B2, “MTORC1 modulators and uses thereof” (Aeovian Pharmaceuticals, Inc., priority 2020, dated 2023).
# Tests used:
# FKBP12 = FKBP12 (Homo sapiens (Human), UniProt P62942); test: SPR assay to determine binding affinity to FKBP12 (direct binding); details: immobilized biotinylated avi-FKBP12
# FKBP51 = FKBP51 (Homo sapiens (Human), UniProt Q13451); test: SPR assay to determine binding affinity to FKBP51 (direct binding); details: immobilized biotinylated avi-FKBP51
# FKBP51, sequence (Q13451 whole entry): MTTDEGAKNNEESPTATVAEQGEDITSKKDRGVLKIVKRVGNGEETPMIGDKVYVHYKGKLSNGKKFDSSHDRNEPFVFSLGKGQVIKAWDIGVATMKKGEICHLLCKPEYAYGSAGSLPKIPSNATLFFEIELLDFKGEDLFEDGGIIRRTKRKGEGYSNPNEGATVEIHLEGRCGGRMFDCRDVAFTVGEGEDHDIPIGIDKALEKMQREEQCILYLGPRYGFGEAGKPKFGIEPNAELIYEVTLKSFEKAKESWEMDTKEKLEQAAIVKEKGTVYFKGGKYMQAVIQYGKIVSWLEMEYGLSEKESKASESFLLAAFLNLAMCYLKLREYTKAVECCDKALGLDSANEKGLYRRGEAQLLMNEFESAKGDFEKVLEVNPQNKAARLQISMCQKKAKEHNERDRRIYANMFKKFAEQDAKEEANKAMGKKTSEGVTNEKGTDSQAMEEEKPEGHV
# Outline: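 Biotinylated avi-FKBP51 captured on streptavidin chip to about 2000 RU. Compounds injected at 0.5-1000 nM (8 points, 3-fold) for 120 s contact and 3600 s dissociation in 50 mM HEPES pH 7.5, 150 mM NaCl, 2 mM MgCl2, 1 mM DTT, 0.05% Tween-20, 1% DMSO.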
# [1] = molecular target: FKBP12 / FRB ternary complex (Homo sapiens (Human), UniProt P42345+P62942); test: SPR assay to characterize ternary complex formation with FKBP12 (FRB binding to rapalog-saturated FKBP12); details: FRB dilutions with 100 nM rapalog on immobilized FKBP12
# Outline: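 Biotinylated avi-FKBP12 immobilized (~100 RU) on streptavidin chip; A-B-A injections kept FKBP12 saturated with 100 nM rapalog while FRB (0.00011–20 μM, 3-fold, 12 points) was injected 120 s.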
# [2] = molecular target: FKBP51 / FRB ternary complex (Homo sapiens (Human), UniProt P42345+Q13451); test: SPR assay to characterize ternary complex formation with FKBP51 (FRB binding to rapalog-saturated FKBP51); details: FRB dilutions with 100 nM rapalog on immobilized FKBP51
# Outline: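 SPR with biotinylated avi-FKBP51 on streptavidin chip (~200 RU); FRB (0.00011-20 μM, 3-fold series) injected with 100 nM rapalog, A-B-A mode keeping FKBP saturated with rapalog.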
# mTORC1 = mTORC1 (Homo sapiens (Human), UniProt P42345+P62942); test: mTORC1 inhibition, AlphaLISA of Phospho-p70 S6 kinase (p70S6K pT389) in PC-3 cells; type: cell-based; details: inhibition of p70S6K pT389 levels
# mTORC2 = mTORC2 (Homo sapiens (Human), UniProt P42345+P62942); test: mTORC2 inhibition, AlphaLISA of Phospho-AKT (pAKT pS473) in PC3 cells; type: cell-based
# FKBP12, sequence (P62942 whole entry): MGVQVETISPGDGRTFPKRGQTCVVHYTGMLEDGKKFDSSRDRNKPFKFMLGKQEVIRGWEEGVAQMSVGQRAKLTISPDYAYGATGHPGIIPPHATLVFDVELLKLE
SMILES,Kd (FKBP12) [nM],Kd (FKBP51) [nM],Kd [1] [nM],Kd [2] [nM],IC50 (mTORC1) [nM],mTORC2 % inhibition at 1 uM (mTORC2)
CO[C@@H]1C[C@H](C[C@@H](C)[C@@H]2CC(=O)[C@H](C)/C=C(\C)[C@@H](O)[C@@H](OC)C(=O)[C@H](C)C[C@H](C)/C=C/C=C/C=C(\C)[C@@H](OCC3CC3)C[C@@H]3CC[C@@H](C)[C@@](O)(O3)C(=O)C(=O)N3CCCC[C@H]3C(=O)O2)CC[C@H]1OCCCS(C)(=O)=O [Compound 60],> 1,> 100,< 300,> 800,0.1 to 0.8,B (B>20% and less than 40% inhibition at 1 uM)
COCCO[C@H]1C[C@@H]2CC[C@@H](C)[C@@](O)(O2)C(=O)C(=O)N2CCCC[C@H]2C(=O)O[C@H]([C@H](C)C[C@@H]2CC[C@@H](OCCCS(C)(=O)=O)[C@H](OC)C2)CC(=O)[C@H](C)/C=C(\C)[C@@H](O)[C@@H](OC)C(=O)[C@H](C)C[C@H](C)/C=C/C=C/C=C/1C [Compound 61],< 0.3,> 100,< 300,> 800,< 0.1,B (B>20% and less than 40% inhibition at 1 uM)
CO[C@@H]1C[C@H](C[C@@H](C)[C@@H]2CC(=O)[C@H](C)/C=C(\C)[C@@H](O)[C@@H](OC)C(=O)[C@H](C)C[C@H](C)/C=C/C=C/C=C(\C)[C@@H](OCC3CCC3)C[C@@H]3CC[C@@H](C)[C@@](O)(O3)C(=O)C(=O)N3CCCC[C@H]3C(=O)O2)CC[C@H]1OCCCS(C)(=O)=O [Compound 62],> 1,> 100,< 300,> 800,> 0.8,C (C≥40% and less than 60% inhibition at 1 uM)
CO[C@@H]1C[C@H](C[C@@H](C)[C@@H]2CC(=O)[C@H](C)/C=C(\C)[C@@H](O)[C@@H](OC)C(=O)[C@H](C)C[C@H](C)/C=C/C=C/C=C(\C)[C@@H](OC3CC3)C[C@@H]3CC[C@@H](C)[C@@](O)(O3)C(=O)C(=O)N3CCCC[C@H]3C(=O)O2)CC[C@H]1OCCCS(C)(=O)=O [Compound 64],0.3 to 1,> 100,< 300,< 300,0.1 to 0.8,C (C≥40% and less than 60% inhibition at 1 uM)
COC1C(=O)C(C)CC/C=C/C=C/C=C(\C)C(CCO)C[C@H]2CC[C@H](C)[C@](O)(O2)C(=O)C(=O)N(C)C(C)C(=O)OC([C@H](C)C[C@@H]2CC[C@@H](OCCCS(C)(=O)=O)[C@H](OC)C2)CC(=O)C(C)/C=C(\C)C1O (stereo partly drawn) [Compound 67],< 0.3,10 to 100,300 to 800,> 800,0.1 to 0.8,B (B>20% and less than 40% inhibition at 1 uM)

# Second part, led by results:
Kd (FKBP12) [nM],Kd (FKBP51) [nM],Kd [1] [nM],Kd [2] [nM],IC50 (mTORC1) [nM],SMILES,mTORC2 % inhibition at 1 uM (mTORC2)
< 0.3,10 to 100,< 300,> 800,< 0.1,CO[C@@H]1C[C@H](C[C@@H](C)[C@@H]2CC(=O)[C@H](C)/C=C(\C)[C@@H](O)[C@@H](OC)C(=O)[C@H](C)C[C@H](C)/C=C/C=C/C=C(\C)[C@@H](OCCCO)C[C@@H]3CC[C@@H](C)[C@@](O)(O3)C(=O)C(=O)N3CCCC[C@H]3C(=O)O2)CC[C@H]1OCCCS(C)(=O)=O [Compound 68],C (C≥40% and less than 60% inhibition at 1 uM)
0.3 to 1,10 to 100,300 to 800,> 800,0.1 to 0.8,CO[C@@H]1C[C@H](C[C@@H](C)[C@@H]2CC(=O)[C@H](C)/C=C(\C)[C@@H](O)[C@@H](OC)C(=O)[C@H](C)C[C@H](C)/C=C/C=C/C=C(\C)[C@H](OCCCO)C[C@@H]3CC[C@@H](C)[C@@](O)(O3)C(=O)C(=O)N3CCCC[C@H]3C(=O)O2)CC[C@H]1OCCCS(C)(=O)=O [Compound 69],B (B>20% and less than 40% inhibition at 1 uM)
